ChEMBL document CHEMBL3393054, “Development of 2-aminooxazoline 3-azaxanthenes as orally efficacious β-secretase inhibitors for the potential treatment of Alzheimer's disease” (Bioorg Med Chem Lett, 2015)

Experiments:
Beta-secretase 1 [1] = molecular target: T1, Beta-secretase 1 (Homo sapiens, UniProt P56817)
Rattus norvegicus [2] = species on record: Rattus norvegicus; experiment: animal or person; conditions: Sprague-Dawley, Cerebrospinal fluid, po, 4 h, read-out: INH
Beta-secretase 1 [3] = molecular target: T1, Beta-secretase 1; remark: listed apart in the source
Cathepsin D = Cathepsin D (Homo sapiens, UniProt P07339)
Chain of Cathepsin D (P07339 65-162 limits assumed): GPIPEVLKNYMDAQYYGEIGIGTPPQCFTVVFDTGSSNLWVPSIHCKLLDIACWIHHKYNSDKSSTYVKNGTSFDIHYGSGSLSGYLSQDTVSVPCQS
Chain of Cathepsin D (P07339 169-412 limits assumed): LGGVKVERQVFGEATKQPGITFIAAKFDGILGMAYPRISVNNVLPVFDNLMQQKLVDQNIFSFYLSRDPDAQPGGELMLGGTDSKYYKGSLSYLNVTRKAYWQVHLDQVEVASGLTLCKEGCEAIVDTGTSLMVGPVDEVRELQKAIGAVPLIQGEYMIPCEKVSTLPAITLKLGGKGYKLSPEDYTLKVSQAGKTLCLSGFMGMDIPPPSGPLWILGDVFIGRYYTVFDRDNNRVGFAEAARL

Rattus norvegicus [4] = species on record: Rattus norvegicus; conditions: dose 10 mg/kg; route oral
Rattus norvegicus [5] = species on record: Rattus norvegicus; conditions: dose 10 mg/kg; route oral; remark: listed apart in the source

T1 sequence (P56817 whole entry): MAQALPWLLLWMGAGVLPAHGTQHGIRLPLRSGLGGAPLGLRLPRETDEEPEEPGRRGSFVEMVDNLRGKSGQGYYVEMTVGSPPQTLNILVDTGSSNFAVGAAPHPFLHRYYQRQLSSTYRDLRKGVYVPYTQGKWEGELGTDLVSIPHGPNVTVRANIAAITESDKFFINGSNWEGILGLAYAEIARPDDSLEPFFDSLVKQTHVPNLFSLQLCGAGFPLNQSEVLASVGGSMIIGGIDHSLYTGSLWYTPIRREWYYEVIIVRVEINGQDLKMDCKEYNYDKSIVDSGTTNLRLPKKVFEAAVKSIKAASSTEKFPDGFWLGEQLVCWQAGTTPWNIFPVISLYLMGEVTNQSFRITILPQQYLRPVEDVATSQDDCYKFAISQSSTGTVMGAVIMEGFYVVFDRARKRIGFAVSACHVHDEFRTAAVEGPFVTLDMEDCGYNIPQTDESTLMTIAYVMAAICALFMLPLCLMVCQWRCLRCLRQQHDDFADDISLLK

IC50 (Beta-secretase 1 [1])	IC50 (Beta-secretase 1 [3])	IC50 (Cathepsin D)	Structure (SMILES)	inhibition in vivo at 10 mg/kg (Rattus norvegicus [2])	fEC50 (Rattus norvegicus [4])	fEC50 (Rattus norvegicus [5])
0.016 µM	0.0025 µM	3.19 µM	NC1=N[C@@]2(CO1)c1cc(-c3cccnc3F)ccc1Oc1cnc(-c3ccncc3)cc12	56%	745 nM	365 nM
–	–	11.6 µM	NC1=N[C@@]2(CO1)c1cc(-c3cccnc3F)ccc1Oc1cnc([C@@H]3CCCCO3)cc12	–	–	–
0.0253 µM	0.0014 µM	0.65 µM	NC1=N[C@@]2(CO1)c1cc(-c3cccnc3F)ccc1Oc1cnc(-c3ccccc3)cc12	–	–	–
–	–	1.04 µM	NC1=N[C@@]2(CO1)c1cc(-c3cccnc3F)ccc1Oc1cnc([C@H]3CCCCO3)cc12	–	–	–
0.022 µM	0.004 µM	0.53 µM	CC1(C)CN(c2cc3c(cn2)Oc2ccc(-c4cccnc4F)cc2[C@@]32COC(N)=N2)CCO1	–	–	–
0.0495 µM	0.0071 µM	3.39 µM	NC1=N[C@@]2(CO1)c1cc(-c3cccnc3F)ccc1Oc1cnc(C3CCOCC3)cc12	–	659 nM	339 nM
0.0079 µM	0.0005 µM	1.08 µM	NC1=N[C@@]2(CO1)c1cc(-c3cccnc3F)ccc1Oc1cnc(C3=CCCOC3)cc12	–	31 nM	16 nM
0.0266 µM	0.0038 µM	4.1 µM	NC1=N[C@@]2(CO1)c1cc(-c3cccnc3F)ccc1Oc1cnc(-c3ccccn3)cc12	–	–	–
0.0074 µM	0.0009 µM	0.71 µM	CC1(C)C=C(c2cc3c(cn2)Oc2ccc(-c4cccnc4F)cc2[C@@]32COC(N)=N2)CCO1	76%	57 nM	34 nM
0.123 µM	0.0113 µM	5.8 µM	NC1=N[C@@]2(CO1)c1cc(-c3cccnc3F)ccc1Oc1cnc(C3CCCOC3)cc12 (some centres undefined)	–	–	–
0.0185 µM	–	–	NC1=N[C@]2(CO1)c1cc(C3=CCOCC3)ccc1Oc1ccc(-c3cccnc3F)cc12	–	–	–
0.0042 µM	0.0007 µM	0.64 µM	NC1=N[C@@]2(CO1)c1cc(-c3cccnc3F)ccc1Oc1cnc(C3=CCOCC3)cc12	–	60 nM	27 nM
0.015 µM	0.0024 µM	3.87 µM	Cc1cc(-c2cc3c(cn2)Oc2ccc(-c4cccnc4F)cc2[C@@]32COC(N)=N2)ccn1	60%	62 nM	30 nM
–	–	2.22 µM	NC1=N[C@@]2(CO1)c1cc(-c3cccnc3F)ccc1Oc1cnc(N3CC[C@H](F)C3)cc12	–	–	–
–	–	0.68 µM	NC1=N[C@@]2(CO1)c1cc(-c3cccnc3F)ccc1Oc1cnc(N3CC[C@@H](F)C3)cc12	–	–	–

Structure (SMILES)	IC50 (Beta-secretase 1 [1])	IC50 (Beta-secretase 1 [3])	IC50 (Cathepsin D)	inhibition in vivo at 10 mg/kg (Rattus norvegicus [2])	fEC50 (Rattus norvegicus [4])	fEC50 (Rattus norvegicus [5])
NC1=N[C@@]2(CO1)c1cc(-c3cccnc3F)ccc1Oc1cnc(N3CCOCC3)cc12	0.0205 µM	–	0.6 µM	–	–	–
NC1=N[C@@]2(CO1)c1cc(-c3cccnc3F)ccc1Oc1cnc(N3CCC(F)(F)CC3)cc12	0.0087 µM	–	0.14 µM	–	54 nM	–
NC1=N[C@@]2(CO1)c1cc(-c3cccnc3F)ccc1Oc1cnc(N3CCC(F)(F)C3)cc12	0.0041 µM	–	0.44 µM	–	38 nM	32 nM
